Reference: paper PMC7377239, “Cardiovascular Effects of Polychlorinated Biphenyls and Their Major Metabolites” (Environmental Health Perspectives, 2020)
Read-outs that look alike come from different tables or passages of the source.

Legend:
[1] = system: iCell endothelial cells (human iPSC-derived ECs); test: High-content imaging cytotoxicity in iCell endothelial cells, 24 h; format: cell-based; settings: Homo sapiens, Endothelial cell, iPSC-EC, 24 hr; for viability at 0.1 µM / activity at 0.1 µM: 0.10 µM; for minimal effective concentration: top concentration 100.00 µM
In short: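 Human iPSC-derived endothelial cells (passages 1–5) were grown to a fibronectin-coated monolayer, then exposed 24 h at 37 °C with 0.5% DMSO vehicle. Staining was Hoechst 33342, MitoTracker Orange and calcein AM, read by high-content imaging. Point of departure came from 4-parameter logistic fits, with a 1-SD vehicle cutoff and 100 µM as the top concentration.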

[2] = system: iCell endothelial cells (human iPSC-derived ECs); test: Tube formation (tubulogenesis) assay in iCell endothelial cells, 18 h; format: cell-based; settings: Homo sapiens, Endothelial cell, iPSC-EC tube formation, 18 hr; for activity at 0.1 µM: 0.10 µM; for minimal effective concentration: top concentration 100.00 µM
In short: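 iCell ECs (passages 1–5) seeded 7,500 cells/well on reduced-growth-factor Geltrex in starvation medium, exposed overnight at 37°C to compounds in triplicate concentration–response (0.5% DMSO vehicle). Calcein AM staining, 4× imaging, angiogenesis image analysis; readouts normalized to vehicle, four-parameter logistic fit, POD at 1 SD of vehicle; 100 μM assigned NOAEL if no response.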

[3] = 0.00 µM control = 100.00, read-out: endo.cyto.24hr
[4] = 0.00 µM control = 100.00, read-out: endo.mito.24hr
[5] = 0.00 µM control = 100.00, read-out: endo.mitoint.24hr
[6] = 0.00 µM control = 100.00, read-out: endo.nma.24hr
[7] = 0.00 µM control = 100.00, read-out: endo.tc.24hrs
[8] = 0.00 µM control = 100.00, read-out: endo.mtl.18hr
[9] = 0.00 µM control = 100.00, read-out: endo.tlps.18hr
[10] = 0.00 µM control = 100.00, read-out: endo.tta.18hr
[11] = 0.00 µM control = 100.00, read-out: endo.ttl.18hr

Oc1cc(Cl)cc(-c2cccc(Cl)c2)c1 [5-OH PCB 11]
viability at 0.01 µM [1, 3]: 99.9% | activity at 0.01 µM [1, 4]: 100% | activity at 0.01 µM [1, 5]: 96.8% | activity at 0.01 µM [1, 6]: 101% | viability at 0.01 µM [1, 7]: 99.9% | viability at 0.1 µM [1, 3]: 100% | activity at 0.1 µM [1, 4]: 100% | activity at 0.1 µM [1, 5]: 93.5% | activity at 0.1 µM [1, 6]: 100% | viability at 0.1 µM [1, 7]: 100% | viability at 1 µM [1, 3]: 102% | activity at 1 µM [1, 4]: 103% | activity at 1 µM [1, 5]: 92.3% | activity at 1 µM [1, 6]: 99.2% | viability at 1 µM [1, 7]: 102% | viability at 10 µM [1, 3]: 102% | activity at 10 µM [1, 4]: 103% | activity at 10 µM [1, 5]: 107% | activity at 10 µM [1, 6]: 98.6% | viability at 10 µM [1, 7]: 102% | viability at 100 µM [1, 3]: 19.9% | activity at 100 µM [1, 4]: 30.3% | activity at 100 µM [1, 5]: 62.5% | activity at 100 µM [1, 6]: 79.6% | viability at 100 µM [1, 7]: 47.2% | minimal effective concentration ([1]; read-out: endo.cyto.24hr POD): 42.3 µM | minimal effective concentration ([1]; read-out: endo.mito.24hr POD): 42.3 µM | minimal effective concentration ([1]; read-out: endo.mitoint.24hr POD): 55 µM | minimal effective concentration ([1]; read-out: endo.nma.24hr POD): 14.2 µM | minimal effective concentration ([1]; read-out: endo.tc.24hrs POD): 43.2 µM | activity at 0.01 µM [2, 8]: 117% | activity at 0.01 µM [2, 9]: 105% | activity at 0.01 µM [2, 10]: 155% | activity at 0.01 µM [2, 11]: 155% | activity at 0.1 µM [2, 8]: 102% | activity at 0.1 µM [2, 9]: 110% | activity at 0.1 µM [2, 10]: 125% | activity at 0.1 µM [2, 11]: 125% | activity at 1 µM [2, 8]: 109% | activity at 1 µM [2, 9]: 124% | activity at 1 µM [2, 10]: 134% | activity at 1 µM [2, 11]: 132% | activity at 10 µM [2, 8]: 53.8% | activity at 10 µM [2, 9]: 26.9% | activity at 10 µM [2, 10]: 38.5% | activity at 10 µM [2, 11]: 37.3% | activity at 100 µM [2, 8]: 46.3% | activity at 100 µM [2, 9]: 12.3% | activity at 100 µM [2, 10]: 1.58% | activity at 100 µM [2, 11]: 2.12% | minimal effective concentration ([2]; read-out: endo.mtl.18hr POD): 5.28 µM | minimal effective concentration ([2]; read-out: endo.tlps.18hr POD): 5.71 µM | minimal effective concentration ([2]; read-out: endo.tta.18hr POD): 6.97 µM | minimal effective concentration ([2]; read-out: endo.ttl.18hr POD): 7.34 µM
